# Source: patent publication US9394284B2, “Compounds act at multiple prostaglandin receptors giving a general anti-inflammatory response” (Allergan, Inc., priority 2010, dated 2016)
# How the values were obtained:
# Strains TA 98 and TA 100 = assay: Ames Test for mutagenicity; assay type: cell-based
# Description: The compounds of FIGS. 3 and 3(a) were tested for mutagenicity by means of the Ames Test using Strains TA 98 and TA 100. The results were negative for both compounds.
# [1] = system: Dutch-belted pigmented rabbits; assay: Arachidonate induced uveitis, anterior chamber leukocyte infiltration; assay type: in vivo, rabbit; settings: topical, concentrations of 0.1, 0.3 and 1%; sodium arachidonate challenge; FIG. 12
# Description: Arachidonate Induced Uveitis
# The rational for this protocol is to use arachidonate to directly produce ocular anterior segment uveitis, as opposed to using lipopolysaccharide (LPS) to indirectly release arachidonic acid.
# Conscious male or female Dutch-belted pigmented rabbits weighing 2.5-3 kg were used for all in vivo slit lamp studies. Four animals were employed per test group. The right eye of each animal receiving 35 μl of topically administered test and the contralateral left eye of each animal receiving 35 μl of topically administered vehicle (t=0 minutes), followed 30 minutes later by treatment with 35 μl of 0.5% sodium arachidonate onto the surface of both eyes (t=30 minutes). Both eyes were examined by slit lamp 60 minutes following sodium arachdionate challenge (t=90 minutes) at 16× magnification under both white light and blue light illumination at an approximate angle of 45° through 1 mm and 5 mm slit widths.
# Measurement of Anterior Chamber Leukocyte Infiltration:
# Anterior chamber leukocyte infiltration was measured using a numerical scoring system to estimate cell number per field defined by a 5 mm slit width: 0=no cells per field (no response); 1=1-10 cells per field (mild); 2=11-20 cells per field (moderate); 3=[…] cells per field (severe); 4=>50 cells per filed (florid). Results are reported as the mean score value±S.E.M.
# [2] = system: allergic conjunctival itch; assay: Allergic conjunctival itch model; assay type: in vivo; settings: FIGS. 10 and 11
# Description: The compounds of this invention were tested according to the method described in “Characterization of Receptor Subtypes Involved in Prostanoid-Induced Conjunctival Pruritis and Their Role in Mediating Conjunctival Itching”, Vol. 279, No. 1, (JPET) 279, 137-142' 1996 for their efficacy in alleviating itch.
Compound,mutagenicity (Ames Test) (Strains TA 98 and TA 100),anterior chamber leukocyte infiltration (uveitis model) [1],number of itch-scratch episodes [2]
"CCC(CC)COc1ccc(Br)cc1Cn1nc(CCC(=O)O)cc1C [Example 3, 3-{1-[5-Bromo-2-(2-ethyl-butoxy)-benzyl]-5-methyl-1H-pyrazol-3-yl}-propionic acid]",negative,dose dependent response,significantly lower number of itch-scratch episodes
"CCC(CC)COc1ccc(Cl)cc1Cn1nc(CCC(=O)O)cc1C [Example 3a, 3-{1-[5-Chloro-2-(2-ethyl-butoxy)-benzyl]-5-methyl-1H-pyrazol-3-yl}-propionic acid]",negative,dose dependent response,significantly lower number of itch-scratch episodes
